Consider one compound from US20250034586A1, “METHOD FOR EDITING BANANA GENES” (Tropic Biosciences UK Limited, priority 2021, published 2025).

Experiment [1] deals with banana embryos or leaf material. As to the kind of experiment: Comparison of selection using ALS inhibitor, G418 or hygromycin (genotyping of embryos or leaf material). The class given is cell-based. Conditions: embryos. The source says: In every case, regenerated material was transformed with constructs containing T-DNA that would generate resistance in positive transformants.

The test system of experiment [2] is PPO2, Ma07_g03540. As to the kind of experiment: Trait co-editing in selected embryos (PBE #3). The experiment is classed as cell-based, banana. To be noted: G418 selection. On the procedure:
(§1) We transformed ECS as described previously in Example 6, using the new co-editing plasmids detailed in Table 11 above. Embryos were regenerated as detailed previously, either on media without selection, with 25 mg/L G418, 25 μg/L CSF or 50 μg/L CSF. Initial genotyping of all plasmids tested:
(§2) • All with CsVMV-rAPOBEC1 CBE (rAPOBEC+nCas9 (D10A) PBE from Zong et al. 2017*) and nosP-NptII • pMol_0925 (sgGFP-pNOS::Kan::tOCS-pCsVMV::nCas9PBE1::tg7-Dummy-pTaU6::sg1GFP_58-pTaU6::sg2GFP_59) • pMol_0934 (sgGFP, sgALS1-pNOS::Kan::tOCS-pCsVMV::nCas9PBE1::tg7-taU6::MaALS1sg2_2021-pTaU6::sg1GFP_58-pTaU6::sg2GFP_59) • pMol_0935 (sgGFP, sgALS2-pNOS::Kan::tOCS-pCsVMV::nCas9PBE1::tg7-taU6::MaALS2sg2_2023-pTaU6::sg1GFP_58-pTaU6::sg2GFP_59) • pMol_0926 (sgPPO2, sgALS1-pNOS::Kan::tOCS-pCsVMV::nCas9PBE1::tg7-taU6::MaALS1sg2_2021-pTaU6::sg1PPO2_2961-pTaU6::sg2PPO2_2962-pTaU6::sg3PPO2_2963) • pMol_0927 (sgPPO2, sgALS1-pNOS::Kan::tOCS-pCsVMV::nCas9PBE1::tg7-taU6::MaALS1sg2_2021-pTaU6::sg3PPO2_2963-pTaU6::sg4PPO2_2964) • pMol_0928 (sgACO1, sgALS1-pNOS::Kan::tOCS-pCsVMV::nCas9PBE1::tg7-taU6::MaALS1sg2_2021-pTaU6::sg1ACO1_2965-pTaU6::sg2ACO1_2966-pTaU6::sg3ACO1_2967) • pMol_0929 (sgPPO2, sgALS2-pNOS::Kan::tOCS-pCsVMV::nCas9PBE1::tg7-taU6::MaALS2sg2_2023-pTaU6::sg1PPO2_2961-pTaU6::sg2PPO2_2962-pTaU6::sg3PPO2_2963) • pMol_0930 (sgPPO2, sgALS2-pNOS::Kan::tOCS-pCsVMV::nCas9PBE1::tg7-taU6::MaALS2sg2_2023-pTaU6::sg3PPO2_2963-pTaU6::sg4PPO2_2964) • pMol_0931 (sgACO1, sgALS2-pNOS::Kan::tOCS-pCsVMV::nCas9PBE1::tg7-taU6::MaALS2sg2_2023-pTaU6::sg1ACO1_2965-pTaU6::sg2ACO1_2966-pTaU6::sg3ACO1_2967) ECS were left to ‘recover’ after transformation for 1 week in CS+cefo 300 mg/L. We regenerated embryos in 4 different conditions: • 1. No selection • 2. Stable G418 selection (in EDM only 2-3 months) from PBE #3 only (PBE #1/2 plasmids only have mCherry, not NptII) • 3. 25 μg/L chlorsulfuron (in EDM only 2-3 months) • 4. 50 μg/L chlorsulfuron (in EDM only 2-3 months)
(§3) gDNA from embryos and plantlets was extracted and qPCR was used to test for the presence of integrated tDNA in the plant genome. Three independent qPCRs were run on each sample with different sets of primers (listed below) spanning the tDNA, ranging from the left to right border. An additional qPCR was run on an endogenous banana gene (actin) for normalisation of Ct values. All qPCRs were run on the LightCycler® 96 System (Roche) using PowerUp™ SYBR® Green Master Mix (Thermo Fisher Scientific™).
(§4) For edit validation, amplicons for each target gene (als1, als2, ppo2, aco1) were made using Q5® High-Fidelity 2× Master Mix (New England Biolabs, NEB) using reaction settings listed below. PCR products were purified using Monarch® PCR & DNA Cleanup Kit (NEB) according to manufacturer's specifications. The amplicons were after validated by Sanger sequencing.

Experiment [3] concerns ACO1, Ma01_g11540. Nature of the experiment: Trait co-editing in selected embryos (PBE #3). The class given is cell-based, banana. To be noted: G418 selection. How it is done: as §1, §2, §3, §4

Consider `CN[C@@H]1[C@@H](O)[C@@H](O[C@@H]2[C@@H](O)[C@H](O[C@H]3O[C@H]([C@@H](C)O)[C@@H](O)[C@H](O)[C@H]3N)[C@@H](N)C[C@H]2N)OC[C@]1(C)O` [Plasmid G418], for which, in experiment [1] (stable selection), the Editing frequency is reported as 17/28 = 60.7% and the Transgenic frequency was 18/28 = 64.3%. Further, in experiment [1] (transient selection), the Editing frequency is reported as 35/867 = 4.0%, the Non-transgenic edited is on record as 0/774 = 0% and the Transgenic frequency is recorded as 95/943 = 10.1%. Moreover, the “Percentage edited PPO2 embryos” value in experiment [2] is reported as 31.25. Also, in experiment [2] (16 embryos tested), the “PPO2 edited embryos total” value was 5. The “Percentage edited ACO1 embryos” value in experiment [3] was 33.33. Moreover, the “ACO1 edited embryos total” value in experiment [3] (6 embryos tested) was 2.
